Data set [1] has as its system injured cartilage explants, PGE2 synthesis. The data set can be described thus: drop tower design model: PGE2 synthesis. Type of data set: cell-based, bovine. The settings on record: cocktail of cytokines. From the text:
(§1) The device comprises a vertical rail that guides a sliding weight from 0.1 kg to 3 kg directly onto a force transducer which is situated at the bottom of the device. A sphere-shaped 2 mm indenter resting on a specimen is located at the bottom of the vertical rail. The indenter is held by a stop screw. The specimen is rigidly attached to a tissue holder underneath the indenter, to avoid side movements, the specimen is rigidly attached to the tissue holder. In this manner, the force transducer transduces a force indirectly onto the specimen. Adjusting the weight of a mass and height from which the mass drops varies the magnitude of the intended impact. For example, a weight mass (e.g., 500 mg) held by a weight holder can be released from a height of e.g., 36 cm and dropped onto the force transducer. […]
(§2) In the first method, bovine or human PBMCs were freshly prepared using Ficoll gradient by Lampire Biological Laboratories, Inc. PBMCs in RPMI w/10% FCS at delivery were spun down at 1500 rpm for twenty minutes and the cell pellet was washed twice with 1×PBS to wash off the residual Ficoll. […] Each conditioned medium was assessed for levels of pro-inflammatory cytokines to ensure their secretion from PBMC. […]
PGE2 was measured with STAT-Prostaglandin E2 EIA ELISA kit (Cayman Biochemicals), as described in Example III above. […]

Data set [2] concerns injured cartilage explants, NO production. The data set can be described thus: drop tower design model: NO production. Format: cell-based, bovine. The settings on record: cocktail of cytokines.
Excerpt: as §1, with “impact.” for “impact. For example, a weight mass (e.g., 500 mg) held by a weight holder can be released from a height of e.g., 36 cm and dropped onto the force transducer.”
as §2
Nitrate/Nitrite was measured using the Griess reaction (Green L. C. et al., “Analysis of Nitrate, Nitrite, and [15N]nitrate in Biological Fluids,” Anal. Biochem. 126: 131-138 (1982)) with a Nitrate/Nitrite Colorimetric Assay Kit (Cayman Chemicals), as described in Example III above.

The target in data set [3] is COX2 (Homo sapiens, UniProt P35354). Briefly: COX2 inhibition. Format: biochemical.
The target of data set [4] is p38α MAP kinase (Homo sapiens, UniProt Q16539). Briefly: p38α MAP kinase enzyme inhibition. Format: biochemical.
The subject of data set [5] is LPS-induced TNF human peripheral blood mononuclear cells (hPBMC). The data set can be described thus: LPS-induced TNF in hPBMC. Format: cell-based.
Data set [6] addresses COX1 (Homo sapiens, UniProt P23219). Briefly: COX1 inhibition. Format: biochemical.
Data set [7] concerns injured cartilage explants. Format: cell-based. From the text: The device comprises a vertical rail that guides a sliding weight from 0.1 kg to 3 kg directly onto a force transducer which is situated at the bottom of the device. A sphere-shaped 2 mm indenter resting on a specimen is located at the bottom of the vertical rail. The indenter is held by a stop screw. The specimen is rigidly attached to a tissue holder underneath the indenter, to avoid side movements, the specimen is rigidly attached to the tissue holder. In this manner, the force transducer transduces a force indirectly onto the specimen. Adjusting the weight of a mass and height from which the mass drops varies the magnitude of the intended impact. For example, a weight mass (e.g., […]) held by a weight holder can be released from a height of e.g., 36 cm and dropped onto the force transducer.

Data set [8] deals with JNK. The data set can be described thus: JNK inhibition. Format: biochemical.

COX2, sequence (P35354 18-604): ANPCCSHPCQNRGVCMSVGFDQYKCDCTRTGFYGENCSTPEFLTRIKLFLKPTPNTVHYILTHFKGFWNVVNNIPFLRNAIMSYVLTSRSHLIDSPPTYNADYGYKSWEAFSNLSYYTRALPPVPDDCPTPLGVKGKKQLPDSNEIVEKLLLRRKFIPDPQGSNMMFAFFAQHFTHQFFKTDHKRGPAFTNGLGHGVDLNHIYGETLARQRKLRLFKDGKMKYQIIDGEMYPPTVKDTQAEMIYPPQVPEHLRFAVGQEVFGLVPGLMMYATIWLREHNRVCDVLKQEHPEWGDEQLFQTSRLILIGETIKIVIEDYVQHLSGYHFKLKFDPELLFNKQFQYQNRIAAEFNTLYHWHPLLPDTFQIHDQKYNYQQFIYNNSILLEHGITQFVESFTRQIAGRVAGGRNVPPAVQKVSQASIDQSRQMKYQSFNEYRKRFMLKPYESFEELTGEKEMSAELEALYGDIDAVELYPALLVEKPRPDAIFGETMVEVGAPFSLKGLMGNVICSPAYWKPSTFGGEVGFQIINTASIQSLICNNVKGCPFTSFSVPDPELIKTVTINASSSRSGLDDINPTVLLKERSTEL
p38α MAP kinase, sequence (Q16539 whole entry): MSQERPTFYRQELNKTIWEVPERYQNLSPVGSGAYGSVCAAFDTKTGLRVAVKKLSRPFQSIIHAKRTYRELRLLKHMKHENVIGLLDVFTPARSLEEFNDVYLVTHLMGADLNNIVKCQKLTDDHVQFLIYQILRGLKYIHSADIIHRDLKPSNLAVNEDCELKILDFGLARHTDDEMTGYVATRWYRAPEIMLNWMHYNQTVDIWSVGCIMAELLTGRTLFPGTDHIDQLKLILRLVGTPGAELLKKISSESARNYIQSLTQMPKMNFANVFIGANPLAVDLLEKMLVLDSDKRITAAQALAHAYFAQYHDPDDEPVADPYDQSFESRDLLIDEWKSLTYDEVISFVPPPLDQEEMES
COX1, sequence (P23219 24-599): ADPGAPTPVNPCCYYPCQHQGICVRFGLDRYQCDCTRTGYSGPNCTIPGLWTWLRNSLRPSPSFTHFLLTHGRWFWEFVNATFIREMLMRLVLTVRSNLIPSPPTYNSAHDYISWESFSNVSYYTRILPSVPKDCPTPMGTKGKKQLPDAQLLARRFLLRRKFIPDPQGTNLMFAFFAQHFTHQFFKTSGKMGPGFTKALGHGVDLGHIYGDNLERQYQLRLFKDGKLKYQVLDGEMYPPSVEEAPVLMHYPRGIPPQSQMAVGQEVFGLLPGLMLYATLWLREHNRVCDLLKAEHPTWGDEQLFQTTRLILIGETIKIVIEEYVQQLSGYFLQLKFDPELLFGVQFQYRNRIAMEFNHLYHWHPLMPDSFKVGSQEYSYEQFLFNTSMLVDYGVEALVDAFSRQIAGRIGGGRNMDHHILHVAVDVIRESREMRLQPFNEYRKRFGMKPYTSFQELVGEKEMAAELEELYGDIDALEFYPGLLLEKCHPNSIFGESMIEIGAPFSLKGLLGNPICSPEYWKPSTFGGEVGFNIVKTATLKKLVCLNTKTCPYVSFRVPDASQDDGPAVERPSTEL

For the compound `OCCC#Cc1nc(-c2ccc(F)cc2)c(-c2ccncc2)n1CCCc1ccccc1` [JNJ 3026582 (RWJ 67657), 4-[4-(4-fluorophenyl)-1-(3-phenylpropyl)-5-(4-pyridinyl)-1H-imidazol-2-yl]-3-butyn-1-ol], in data set [1], the “PGE2 synthesis, inhibition” value is “dose-dependently inhibited”. The “NO production, inhibition” value in data set [2] is “dose-dependently inhibited”.

Consider `CC(=O)N1CCN(c2c(-c3ccncc3)c(-c3ccc(F)cc3)c(C#N)n2C)CC1` [JNJ 17089540 (RWJ 669307)], for which the IC50 is over 10 µM in data set [3], 2000 nM in data set [4], 220 nM in data set [5] and over 10 µM in data set [6].

As to `CC(=O)Oc1cccc2c1C(=O)c1c(OC(C)=O)cc(C(=O)O)cc1C2=O` [Diacerein, reference compound], the “cytotoxicity (LDH, words)” value in data set [7] is recorded as “tolerant”.

In data set [8], `C[C@H](Nc1nccc(-c2c(-c3ccc(F)cc3)nc3nc(N)ccn23)n1)c1ccccc1` [JNJ 7583979 (RWJ 351958)] showed an IC50 of 12 nM.

As a reminder, the IC50 is the concentration at which inhibition is half-maximal.

The values above are taken from US8986696B2, “Trans-capsular administration of p38 map kinase inhibitors into orthopedic joints” (DePuy Mitek, Inc., priority 2007, dated 2015).
